“Also recorded” adds a separate entry of the source. Blank lines part the entries; values can stand above or below the molecule they belong to.
Tests used:
[1] = system: FXN mRNA in FRDA lymphoblasts; settings: FRDA cells in culture; ref Herman et al., 2006; cited from earlier work
HDAC = settings: read-out: IC50 as HDAC inhibitor; ref Herman et al., 2006; cited from earlier work
[2] = system: FXN mRNA in primary lymphocytes from FRDA patients; assay: FXN mRNA by qRT-PCR in primary FRDA patient lymphocytes; assay type: cell-based, human; settings: for up-regulation of FXN mRNA: normalized to GAPDH mRNA, relative to DMSO
[3] = system: FXN mRNA in FRDA lymphoblasts; assay: FXN mRNA by qRT-PCR in FRDA lymphoblast cell line; assay type: cell-based, human
[4] = system: FXN mRNA in patient fibroblasts; assay: FXN mRNA in FRDA patient fibroblasts; assay type: cell-based, human; settings: concentrations up to 10 μM, not shown
Sirt1 = settings: read-out: IC50 Sirt1; reported; ref Napper et al., 2005; cited from earlier work
Sirt2 = settings: read-out: IC50 Sirt2; reported; ref Napper et al., 2005; cited from earlier work
[5] = system: frataxin protein in FRDA lymphoblasts; assay: Frataxin protein by western blot in FRDA lymphoblasts; assay type: cell-based, human; settings: 106 or 3 at 10 μM, SAHA at 2 μM, 48 h, normalized to GAPDH
[6] = system: p21^WAF1 mRNA in HEK293 cells; assay: p21WAF1 mRNA levels in HEK293 cells; assay type: cell-based; settings: data not shown
class I HDACs = settings: ref Chou et al., 2008; cited from earlier work
HDAC1 [7] = target: T1, HDAC1 (Homo sapiens, UniProt Q13547); assay: IC50 with recombinant HDAC1; assay type: biochemical
T1 sequence (Q13547 whole entry): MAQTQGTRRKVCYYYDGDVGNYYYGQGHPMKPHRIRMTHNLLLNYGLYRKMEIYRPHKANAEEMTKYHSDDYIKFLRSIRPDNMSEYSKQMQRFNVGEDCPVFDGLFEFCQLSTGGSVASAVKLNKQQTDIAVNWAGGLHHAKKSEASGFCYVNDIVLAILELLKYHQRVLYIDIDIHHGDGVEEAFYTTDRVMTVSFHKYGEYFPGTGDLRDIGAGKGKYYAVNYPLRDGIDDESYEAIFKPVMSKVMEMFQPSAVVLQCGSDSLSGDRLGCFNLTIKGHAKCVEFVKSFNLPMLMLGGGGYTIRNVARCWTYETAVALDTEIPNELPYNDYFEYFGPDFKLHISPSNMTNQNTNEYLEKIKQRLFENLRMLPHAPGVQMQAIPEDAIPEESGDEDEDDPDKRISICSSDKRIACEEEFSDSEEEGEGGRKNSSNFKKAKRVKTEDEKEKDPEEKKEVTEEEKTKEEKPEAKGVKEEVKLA

HDAC3/NcoR2 = HDAC3/NcoR2 (Homo sapiens, UniProt O15379); assay: Ki and kinetics from enzyme progression curves, HDAC3; assay type: biochemical; settings: fit of Kobs versus inhibitor concentration
Sequence of HDAC3/NcoR2 (O15379 whole entry): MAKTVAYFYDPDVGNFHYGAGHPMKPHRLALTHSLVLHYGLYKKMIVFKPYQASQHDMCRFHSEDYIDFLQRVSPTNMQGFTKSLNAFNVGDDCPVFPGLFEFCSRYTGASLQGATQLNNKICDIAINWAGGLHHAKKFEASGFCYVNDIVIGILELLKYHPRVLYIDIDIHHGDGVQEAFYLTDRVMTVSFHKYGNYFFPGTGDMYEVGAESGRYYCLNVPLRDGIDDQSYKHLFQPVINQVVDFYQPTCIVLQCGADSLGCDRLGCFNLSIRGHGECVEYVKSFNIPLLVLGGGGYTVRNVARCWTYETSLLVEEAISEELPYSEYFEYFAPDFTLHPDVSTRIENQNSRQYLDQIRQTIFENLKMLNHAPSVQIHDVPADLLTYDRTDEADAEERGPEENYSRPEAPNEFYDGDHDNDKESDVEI
Sequence of HDAC3/NcoR2 (Q9Y618 395-489 partner limits assumed): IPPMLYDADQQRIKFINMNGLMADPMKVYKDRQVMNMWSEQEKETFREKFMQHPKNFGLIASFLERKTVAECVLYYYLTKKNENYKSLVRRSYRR

HDAC1 [8] = target: T1, HDAC1; assay: Ki and kinetics from enzyme progression curves, HDAC1; assay type: biochemical
[9] = system: acetylated histone H3 in FRDA lymphoblast cell line; assay: Histone H3 acetylation by western blot in FRDA lymphoblasts; assay type: cell-based, human; settings: for hyperacetylation of histone H3 after inhibitor removal: 3 or 106 at 10 μM, SAHA at 2 μM, 24 h, then washed, 0 to 7 h
[10] = system: tubulin acetylation (class II HDAC6) in FRDA lymphoblasts; assay: Tubulin acetylation by western blot in FRDA lymphoblasts; assay type: cell-based, human
recombinant HDAC2 = recombinant HDAC2 (Homo sapiens, UniProt Q92769); assay: Inhibition of recombinant HDAC2; assay type: biochemical; settings: data not shown
Sequence of recombinant HDAC2 (Q92769 whole entry): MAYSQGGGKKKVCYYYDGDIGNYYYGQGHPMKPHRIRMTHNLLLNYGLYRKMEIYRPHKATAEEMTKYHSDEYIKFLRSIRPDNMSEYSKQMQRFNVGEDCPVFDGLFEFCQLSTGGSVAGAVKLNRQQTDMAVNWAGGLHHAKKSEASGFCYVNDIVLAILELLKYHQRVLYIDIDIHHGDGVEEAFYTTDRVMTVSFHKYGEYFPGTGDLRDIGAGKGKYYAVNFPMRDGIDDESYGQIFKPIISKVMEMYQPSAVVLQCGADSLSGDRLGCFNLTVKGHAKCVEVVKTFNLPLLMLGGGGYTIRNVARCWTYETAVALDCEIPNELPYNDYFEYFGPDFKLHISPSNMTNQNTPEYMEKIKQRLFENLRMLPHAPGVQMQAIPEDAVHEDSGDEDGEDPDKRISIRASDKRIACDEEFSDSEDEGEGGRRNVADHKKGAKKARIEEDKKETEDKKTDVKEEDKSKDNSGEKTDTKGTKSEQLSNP

HDAC7 = target: T2, HDAC7 (Homo sapiens, UniProt Q8WUI4); assay: IC50 with recombinant HDAC7; assay type: biochemical
T2 sequence (Q8WUI4 1-952): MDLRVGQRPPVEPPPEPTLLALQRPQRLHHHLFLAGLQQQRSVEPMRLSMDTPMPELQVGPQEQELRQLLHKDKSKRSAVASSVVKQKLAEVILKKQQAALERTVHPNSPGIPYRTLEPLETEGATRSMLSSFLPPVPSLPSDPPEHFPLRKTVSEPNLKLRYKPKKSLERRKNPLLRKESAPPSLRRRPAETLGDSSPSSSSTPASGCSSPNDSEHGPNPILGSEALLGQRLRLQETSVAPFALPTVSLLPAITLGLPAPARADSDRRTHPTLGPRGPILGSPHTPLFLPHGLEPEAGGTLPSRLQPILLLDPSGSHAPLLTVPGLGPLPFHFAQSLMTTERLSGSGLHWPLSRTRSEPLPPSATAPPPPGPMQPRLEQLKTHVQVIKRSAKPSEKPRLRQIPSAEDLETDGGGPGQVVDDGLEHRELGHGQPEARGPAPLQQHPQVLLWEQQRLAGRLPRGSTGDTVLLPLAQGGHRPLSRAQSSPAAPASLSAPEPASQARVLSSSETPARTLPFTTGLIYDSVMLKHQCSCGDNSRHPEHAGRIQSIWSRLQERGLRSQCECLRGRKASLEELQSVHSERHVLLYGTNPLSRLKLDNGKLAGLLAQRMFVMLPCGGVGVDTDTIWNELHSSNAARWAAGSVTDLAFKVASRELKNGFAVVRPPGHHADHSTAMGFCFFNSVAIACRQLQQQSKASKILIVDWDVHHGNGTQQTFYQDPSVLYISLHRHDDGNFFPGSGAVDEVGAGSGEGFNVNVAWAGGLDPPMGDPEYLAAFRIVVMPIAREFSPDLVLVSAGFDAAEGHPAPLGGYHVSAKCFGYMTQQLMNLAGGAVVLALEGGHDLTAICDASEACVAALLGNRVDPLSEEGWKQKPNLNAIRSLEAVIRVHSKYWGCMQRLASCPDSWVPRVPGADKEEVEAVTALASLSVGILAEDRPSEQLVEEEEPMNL

class II HDACs = settings: read-out: IC50s for class II enzymes; ref Chou et al., 2008; cited from earlier work
recombinant HDAC8 = settings: ref Chou et al., 2008; cited from earlier work
[11] = recombinant HDAC1 vs HDAC3/NcoR2

SMILES: O=C(CCCCCC(=O)Nc1ccccc1)Nc1ccccc1 [5b, N^1-phenyl-N^7-phenylheptanediamide]
- activation of FXN gene expression [1]: fails to activate
- IC50 (HDAC): ~200 µM

SMILES: NC(=O)C1CCCc2c1[nH]c1ccc(Cl)cc21 (stereo not shown) [6-chloro-2,3,4,9-tetrahydro-1H-carbazole-1-carboxamide]
- effect on FXN mRNA levels ([2]; concentrations up to 10 μM, 48 h): no effect
- effect on FXN mRNA levels ([3]; concentrations up to 10 μM, not shown): no effect
- effect on FXN mRNA levels [4]: no effect

SMILES: O=C(CCCCCCC(=O)Nc1ccccc1)NO [SAHA, suberoylanilide hydroxamic acid, reference compound]
- effect on frataxin protein levels [5]: decreased
- p21^WAF1 mRNA levels [6]: increased
- activation of FXN gene expression [1]: neither TSA nor SAHA is an activator

SMILES: CC(/C=C/C(=O)NO)=C\[C@@H](C)C(=O)c1ccc(N(C)C)cc1 [TSA, trichostatin A, reference compound]
- activation of FXN gene expression [1]: neither TSA nor SAHA is an activator
- inhibition kinetics with class I HDACs (class I HDACs): fast-on/fast-off

- preference for HDAC1 over HDAC3 comparing IC50 values (HDAC1 [7]; [11]): ~ 75 fold
- inhibition mechanism, HDAC3/NcoR2 (HDAC3/NcoR2): simple slow-on/slow-off mechanism
- inhibition mechanism, HDAC1 (HDAC1 [8]; fit of Kobs versus inhibitor concentration): slow-on/slow-off
- preference for HDAC1 over HDAC3 from Ki measurements (HDAC1 [8]; [11]): ~ 350 fold
- activity against recombinant HDAC2 (recombinant HDAC2): similarly active
SMILES: Nc1ccc(-c2ccccc2)cc1NC(=O)CCCCCC(=O)Nc1ccccc1 [compound 3, N^1-(4-aminobiphenyl-3-yl)-N^7-phenylheptanediamide]
- up-regulation of FXN mRNA levels ([2]; 48 h): fails to reproducibly up-regulate
- up-regulation of FXN mRNA ([2]; 48 h): ≤ 1.7 fold
- hyperacetylation of histone H3 after inhibitor removal [9]: decreased only slightly
- HDAC inhibition in FRDA cells (histone acetylation titration) ([9]; increasing concentrations, western blotting): comparably active
- tubulin acetylation ([10]; FRDA lymphoblasts): Neither 106 nor 3 caused tubulin acetylation
- effect on frataxin protein levels [5]: without significant effect
- p21^WAF1 mRNA levels [6]: increased

- IC50 (HDAC1 [7]): 30 µM
- IC50 (HDAC7): 4 µM
- preference for a class II HDAC (HDAC7) over a class I HDAC (HDAC1) (HDAC7; from IC50 values): 7.5 fold
SMILES: CC(C)(C)OC(=O)Nc1ccc(NC(=O)CCCC(=O)C(F)(F)F)cc1 [compound 4, tert-butyl 4-(6,6,6-trifluoro-5-oxohexanamido)phenylcarbamate]
- up-regulation of FXN transcription ([2]; concentrations up to 40 μM): failed to show up-regulation
- tubulin acetylation ([10]; 1 μM in culture medium for 24 h): potent inducer
- tubulin acetylation ([10]; FRDA lymphoblasts): highly active
- effect on levels of FXN mRNA ([3]; concentrations up to 10 μM for 24 h): no positive effect

SMILES: Cc1ccc(NC(=O)CCCCCC(=O)Nc2ccccc2N)cc1 [compound 106]
- up-regulation of FXN mRNA levels ([2]; 48 h): highly active
- up-regulation of FXN mRNA ([2]; 48 h): 3 – 4 fold
- hyperacetylation of histone H3 after inhibitor removal [9]: decreased only slightly
- tubulin acetylation ([10]; FRDA lymphoblasts): Neither 106 nor 3 caused tubulin acetylation
- effect on frataxin protein levels [5]: positive effect
- IC50 (class II HDACs): > 180 µM
- activity against HDAC8 (recombinant HDAC8): only weak inhibitory activity; also recorded: only weakly active
- inhibition kinetics with class I HDACs (class I HDACs): slow-on/slow-off

SMILES: CCCC(CCC)C(=O)O [valproic acid]
- activation of FXN gene expression [1]: none

Reference: publication PMC2909763 (Chemistry & biology, 2009)
